Experiment: PN002/Part II: safety and tolerability
Assay type: in vivo
From the text: Clinical safety was monitored throughout the study by adverse events, clinical laboratory tests, vital signs, ECGs, and ECG telemetry.
The subject was not on telemetry at the time.

## CC(C)c1ccc(CC(=O)N[C@H](C)c2ccc(OCC(F)(F)F)cn2)cc1 [CX-8998]
2 mg/d
  Abnormal physical sensation: 0 n %
  Abnormal sensation of limbs: 0 n %
  Anger: 0 n %
  Application site erythema: 0 n %
  Application site pruritus: 0 n %
  At least 1 adverse event: 4 (66.7) n %
  Backache: 0 n %
  Clamminess: 0 n %
  Daydreaming: 0 n %
  Disorientation: 1 (16.7) n %
  Dizziness: 0 n %
  Drowsiness: 0 n %
  Dyspepsia: 0 n %
  Euphoric mood: 0 n %
  Eye Disorders: 0 n %
  Feeling drunk: 0 n %
  Feeling of relaxation: 0 n %
  Floating feeling: 0 n %
  Fuzzy head: 0 n %
  Gastrointestinal Disorders: 2 (33.3) n %
  Hallucination: 0 n %
  Headache: 1 (16.7) n %
  Heaviness of head: 0 n %
  Hyperactivity: 0 n %
  Hypoaesthesia mouth: 0 n %
  Increased state of alertness: 0 n %
  Intermittent headache: 0 n %
  Lethargy: 0 n %
  Lightheadedness: 0 n %
  Mood altered: 0 n %
  Mood change: 0 n %
  Musculoskeletal and Connective Tissue Disorders: 2 (33.3) n %
  Nausea: 2 (33.3) n %
  Nervous System Disorders: 1 (16.7) n %
  Paraesthesia generalized: 0 n %
  Paranoia: 0 n %
  Psychiatric Disorders: 1 (16.7) n %
  Respiratory, Thoracic and Mediastinal Disorders: 1 (16.7) n %
  Sedation: 0 n %
  Sensation of heaviness: 0 n %
  Sensation of pressure: 0 n %
  Skin and Subcutaneous Tissue Disorders: 0 n %
  Sleep difficult: 0 n %
  Sleep disturbance: 0 n %
  Somnolence: 0 n %
  Sore throat: 1 (16.7) n %
  Spaced out: 0 n %
  Syncope: 1 (16.7) n %
  Taste change: 0 n %
  Temporal disorientation: 0 n %
  Tingling: 1 (16.7) n %
  Tiredness: 1 (16.7) n %
  Visual disturbance: 0 n %
  Vivid dreams: 0 n %
  Vomiting: 1 (16.7) n %
4 mg/d
  Abnormal physical sensation: 0 n %
  Abnormal sensation of limbs: 0 n %
  Anger: 0 n %
  Application site erythema: 0 n %
  Application site pruritus: 0 n %
  At least 1 adverse event: 5 (83.3) n %
  Backache: 0 n %
  Clamminess: 0 n %
  Daydreaming: 0 n %
  Disorientation: 0 n %
  Dizziness: 0 n %
  Drowsiness: 2 (33.3) n %
  Dyspepsia: 0 n %
  Euphoric mood: 1 (16.7) n %
  Eye Disorders: 1 (16.7) n %
  Feeling drunk: 0 n %
  Feeling of relaxation: 4 (66.7) n %
  Floating feeling: 1 (16.7) n %
  Fuzzy head: 1 (16.7) n %
  Gastrointestinal Disorders: 1 (16.7) n %
  Hallucination: 0 n %
  Headache: 3 (50.0) n %
  Heaviness of head: 0 n %
  Hyperactivity: 0 n %
  Hypoaesthesia mouth: 0 n %
  Increased state of alertness: 1 (16.7) n %
  Intermittent headache: 1 (16.7) n %
  Lethargy: 1 (16.7) n %
  Lightheadedness: 4 (66.7) n %
  Mood altered: 0 n %
  Mood change: 0 n %
  Musculoskeletal and Connective Tissue Disorders: 0 n %
  Nausea: 0 n %
  Nervous System Disorders: 5 (83.3) n %
  Paraesthesia generalized: 0 n %
  Paranoia: 0 n %
  Psychiatric Disorders: 3 (50.0) n %
  Respiratory, Thoracic and Mediastinal Disorders: 0 n %
  Sedation: 0 n %
  Sensation of heaviness: 0 n %
  Sensation of pressure: 0 n %
  Skin and Subcutaneous Tissue Disorders: 1 (16.7) n %
  Sleep difficult: 0 n %
  Sleep disturbance: 1 (16.7) n %
  Somnolence: 1 (16.7) n %
  Sore throat: 0 n %
  Spaced out: 0 n %
  Syncope: 0 n %
  Taste change: 0 n %
  Temporal disorientation: 0 n %
  Tingling: 0 n %
  Tiredness: 2 (33.3) n %
  Visual disturbance: 1 (16.7) n %
  Vivid dreams: 2 (33.3) n %
  Vomiting: 0 n %
8 mg/d
  Abnormal physical sensation: 0 n %
  Abnormal sensation of limbs: 0 n %
  Anger: 0 n %
  Application site erythema: 3 (50.0) n %
  Application site pruritus: 1 (16.7) n %
  At least 1 adverse event: 6 (100) n %
  Backache: 0 n %
  Clamminess: 1 (16.7) n %
  Daydreaming: 1 (16.7) n %
  Disorientation: 0 n %
  Dizziness: 0 n %
  Drowsiness: 1 (16.7) n %
  Dyspepsia: 2 (33.3) n %
  Euphoric mood: 2 (33.3) n %
  Eye Disorders: 2 (33.3) n %
  Feeling drunk: 0 n %
  Feeling of relaxation: 1 (16.7) n %
  Floating feeling: 2 (33.3) n %
  Fuzzy head: 1 (16.7) n %
  Gastrointestinal Disorders: 3 (50.0) n %
  Hallucination: 0 n %
  Headache: 5 (83.3) n %
  Heaviness of head: 0 n %
  Hyperactivity: 2 (33.3) n %
  Hypoaesthesia mouth: 0 n %
  Increased state of alertness: 1 (16.7) n %
  Intermittent headache: 1 (16.7) n %
  Lethargy: 1 (16.7) n %
  Lightheadedness: 4 (66.7) n %
  Mood altered: 1 (16.7) n %
  Mood change: 2 (33.3) n %
  Musculoskeletal and Connective Tissue Disorders: 1 (16.7) n %
  Nausea: 1 (16.7) n %
  Nervous System Disorders: 6 (100) n %
  Paraesthesia generalized: 1 (16.7) n %
  Paranoia: 0 n %
  Psychiatric Disorders: 3 (50.0) n %
  Respiratory, Thoracic and Mediastinal Disorders: 3 (50.0) n %
  Sedation: 2 (33.3) n %
  Sensation of heaviness: 1 (16.7) n %
  Sensation of pressure: 2 (33.3) n %
  Skin and Subcutaneous Tissue Disorders: 1 (16.7) n %
  Sleep difficult: 0 n %
  Sleep disturbance: 0 n %
  Somnolence: 2 (33.3) n %
  Sore throat: 1 (16.7) n %
  Spaced out: 1 (16.7) n %
  Syncope: 0 n %
  Taste change: 1 (16.7) n %
  Temporal disorientation: 2 (33.3) n %
  Tingling: 1 (16.7) n %
  Tiredness: 3 (50.0) n %
  Visual disturbance: 1 (16.7) n %
  Vivid dreams: 2 (33.3) n %
  Vomiting: 1 (16.7) n %
12 mg/d
  Abnormal physical sensation: 0 n %

— US11311522B1 (Cavion, Inc., priority 2018, dated 2022)
